Measured values reported in paper PMC5283093 (European journal of medicinal chemistry, 2016).

Tests used:
[1] = target: HIV-1 integrase (IN) (Human immunodeficiency virus type 1 group M subtype B, UniProt P12497); experiment: HTRF-based LEDGF/p75 independent 3′-processing assay; format: biochemical
[2] = test system: HEK293T cells; conditions: without viral infection (Fig. 4B)

SMILES | inhibition of IN 3′processing activity in the absence of LEDGF/p75 (in words) [1] | cellular toxicity in words [2]
O=C(O)c1cc(N(Cc2ccccc2F)Cc2ccccc2F)ccc1O [Compound 5, 5-[Bis(2-fluorobenzyl)amino]-2-hydroxybenzoic acid] | weak inhibitions | 
O=C(O)c1cc(N(Cc2ccccc2Cl)Cc2ccccc2Cl)ccc1O [Compound 2, 5-[Bis(2-chlorobenzyl)amino]-2-hydroxybenzoic acid] | weak inhibitions | significant cellular toxicity
O=C(O)c1cc(N(Cc2cccc(F)c2)Cc2cccc(F)c2)ccc1O [Compound 6, 5-[Bis(3-fluorobenzyl)amino]-2-hydroxybenzoic acid] | weak inhibitions | 
O=C(O)c1cc(N(Cc2ccccc2)Cc2ccccc2)ccc1O [Compound 1, 5-(Dibenzylamino)-2-hydroxybenzoic acid] | weak inhibitions | 
